Measurements from PMC8199578, “Anti-Inflammatory, Antiallergic, and COVID-19 Main Protease (M^pro) Inhibitory Activities of Butenolides from a Marine-Derived Fungus Aspergillus terreus” (Molecules, 2021).
Like-named read-outs stand apart in the source and are kept apart here.

Columns and labels:
RBL-2H3 cells [1] = experiment: A23187-induced degranulation (β-hexosaminidase release) assay; assay type: cell-based; details: Rattus norvegicus; for IC50: RBL-2H3, read-out: Inhibition of A23187-Induced Degranulation IC50
Procedure: (§1) The mucosal mast-cell-derived rat basophilic leukemia cells (RBL-2H3) were purchased from Bioresource Collection and Research Center (Hsin-Chu, Taiwan). The cells were cultured in DMEM containing 10% FBS, 100 U/mL penicillin, and 100 μg/mL streptomycin in 10 cm cell culture dishes at 37 °C in a humidified chamber with 5% CO2 in air. The level of degranulation in RBL-2H3 cells was evaluated using β-hexosaminidase release assay induced by A23187 or antigen as reported before with some modifications. Briefly, the cells were seeded in a 96-well plate (2 × 10^4 cells/well, for the A23187-induced assay) or a 48-well plate (3 × 10^4 cells/well, for the antigen-induced assay) overnight. The cells for the antigen-induced assay were sensitized with anti-DNP IgE (0.5 μg/mL; Sigma) during seeding overnight. RBL-2H3 cells were then treated with the samples (0.5, 5, and 50 μM) for 30 min in Tyrode’s buffer with a maximal DMSO dose of 0.5%. For the A23187-induced assay, the cells were activated by addition of A23187 (final concentration 0.5 μM), while cells for the antigen-induced assay were activated by the addition of DNP-BSA (final concentration 100 ng/mL) for 30 min. Azelastine (10 μM) served as the positive control. The amount of β-hexosaminidase was detected using the method utilizing p-NAG as the substrate according to the procedure described before.

RBL-2H3 cells [2] = experiment: Antigen (anti-DNP IgE plus DNP-BSA)-induced degranulation (β-hexosaminidase release) assay; assay type: cell-based; details: Rattus norvegicus; for IC50: RBL-2H3, read-out: Inhibition of Antigen-Induced Degranulation IC50
Procedure: as §1

[3] = MTT cell viability assay in mast cells; assay type: cell-based; details: rat
Procedure: as §1
The viability of the RBL-2H3 cells in the presence of the samples (10 and 100 μM) was determined using the methylthiazole tetrazolium (MTT) assay according to a previous method.

human neutrophils [4] = experiment: Elastase release in fMLF/CB-induced human neutrophils; assay type: cell-based; details: Neutrophil, read-out: Elastase Release in Human Neutrophils IC50
Procedure: (§2) The human neutrophils were obtained from venous blood of healthy adult volunteers (20–30 years old) following the reported procedure. Elastase release by the activated neutrophils was determined using elastase substrate (N-methoxysuccinyl-Ala-Ala-Pro-Val-p-nitroanilide) according to the previous methodology. The tested samples’ concentration was 1 to 10 μM and the total incubation time in fMLF/CB-induced cells was 15 min. Genistein was used as the positive control. Cytotoxicity test was performed based on the release of LDH stored in the cytoplasm out of the cells. Briefly, preheated (37 °C, 5 min, 1 mM CaCl2) human neutrophils (6 × 10^5 cells·mL^−1) were incubated with test compounds for 15 min. Total LDH release control was represented as completely lysed cells by 0.1% of Triton X-100 solution incubated with cells for 30 min. The cells were centrifuged at 4 °C for 200× g for 8 min, and LDH reagent was added to supernatant and reacted at room temperature for 30 min in the dark. The absorbance was then measured at 492 nm, and the LDH release was calculated and compared to the total LDH release set as 100%.

[5] = Lactate dehydrogenase (LDH) viability assay in human neutrophils; assay type: cell-based; details: human, human neutrophils; 10 μM; based on lactate dehydrogenase release; mean ± S.E.M. (n = 3); read-out: Cell viability, Human Neutrophils
Procedure: as §2

human neutrophils [6] = experiment: as above; assay type: cell-based; details: cell viability assay based on lactate dehydrogenase release
Procedure: as §2

[7] = design: method as in PMID 29763312; details: via reducing the levels of histamine and mouse mast cell proteinases; cited from earlier work
[8] = molecular target: T1, human neutrophil elastase (Homo sapiens, UniProt P08246); experiment: Elastase enzymatic activity (cell-free); assay type: biochemical; details: mean ± S.E.M. (n = 3)
T1 construct: followed by fMLF (0.1 μM) for 20 min to release the elastase from the cells; endogenous in cells; host or cells: human neutrophils; degranulation supernatant after CB/fMLF stimulation
T1 sequence (P08246 30-247 limits assumed): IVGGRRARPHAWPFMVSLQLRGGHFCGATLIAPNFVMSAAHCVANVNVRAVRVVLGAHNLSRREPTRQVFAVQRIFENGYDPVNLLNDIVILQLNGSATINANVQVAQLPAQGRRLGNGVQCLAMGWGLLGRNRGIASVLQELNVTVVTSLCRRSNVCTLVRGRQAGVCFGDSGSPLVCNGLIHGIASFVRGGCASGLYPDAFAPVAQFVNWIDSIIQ
Procedure: The compounds were further tested for direct inhibition of elastase enzymatic activity. The neutrophil suspension (6 × 10^5 cells mL^−1) was preheated for 5 min in the presence of CaCl2 (1 mM) at 37 °C. Priming agent CB (1.5 μg mL^−1) was added for 2 min, followed by fMLF (0.1 μM) for 20 min to release the elastase from the cells. After centrifugation at 1000 g for 5 min at 4 °C, the supernatant containing elastase was preheated at 37 °C for 5 min, and the test compounds were added. Then, 0.1 mM of substrate methoxysuccinyl-Ala-Ala-Pro-Val-p-nitroanilide was added for 10 min. The effect of the compounds on elastase enzymatic activity was quantified by measuring the absorbance at 405 nm.

[9] = RBL-2H3, read-out: Inhibition of A23187-induced degranulation
[10] = RBL-2H3, read-out: Inhibition of antigen-induced degranulation
[11] = 100 μM, MTT viability assay, compared with untreated control (DMSO), n = 3, read-out: Cell Viability, RBL-2H3

Row | SMILES | IC50 (RBL-2H3 cells [1]) [µM] | IC50 (RBL-2H3 cells [2]) [µM] | IC50 (human neutrophils [4]; Homo sapiens) [µM] | viability at 15 min, 10 µM [5] [%] | Toxicity to human neutrophils (in words) (human neutrophils [6]) | viability at 100 µM [3, 11] [%] | IC50 [8] [µM] | also measured
1 | CC(C)=CCc1cc(C=O)ccc1O [4-hydroxy-3-(3-methylbut-2-enyl)benzaldehyde] | > 100 | > 100 | > 10 | – | – | – | – | viability at 100 µM [3]: > 90%
2 | CN1CCCC(n2nc(Cc3ccc(Cl)cc3)c3ccccc3c2=O)CC1 (stereo not drawn) [Azelastine, reference compound] | – | – | – | – | – | – | – | inhibition at 10 µM (RBL-2H3 cells [1]; RBL-2H3, 10 μM, mean ± S.E.M. (n = 3), read-out: Inhibition of A23187-induced degranulation): 34.5%; inhibition at 10 µM (RBL-2H3 cells [2]; RBL-2H3, 10 μM, mean ± S.E.M. (n = 3), read-out: Inhibition of antigen-induced degranulation): 35.5%
3 | COC(=O)[C@]1(Cc2ccc(O)c(CC=C(C)C)c2)OC(=O)C(O)=C1c1ccc(O)cc1 [Butyrolactone I (1), butyrolactone I] | 39.7 | 41.6 | 2.3 ± 0.27 | 94.1 ± 2.31 | non-toxic | > 90 | 16.7 ± 2.64 | inhibition at 10 µM (RBL-2H3 cells [1]; [9]): 26%; inhibition at 100 µM (RBL-2H3 cells [1]; [9]): 98.7%; inhibition at 10 µM (RBL-2H3 cells [2]; [10]): 30%; inhibition at 100 µM (RBL-2H3 cells [2]; [10]): 87%; Effect on ovalbumin-induced allergy symptoms [7]: alleviating ovalbumin-induced allergy symptoms
4 | COC(=O)[C@]1(Cc2ccc(O)c(CC3OC3(C)C)c2)OC(=O)C(O)=C1c1ccc(O)cc1 (stereo partly drawn) [Butyrolactone III (2), butyrolactone III] | > 100 | > 100 | > 10 | 98.2 ± 1.77 | non-toxic | > 90 | > 30 | –
5 | O=c1c(-c2ccc(O)cc2)coc2cc(O)cc(O)c12 [Genistein, reference compound] | – | – | – | – | – | – | – | IC50 (human neutrophils [4]; fMLF/cytochalasin B (CB)-induced human neutrophils, mean ± S.E.M. (n = 3)): 32.7 µM
6 | C=C1C[C@]2(O)[C@@]3(C)CCC(=O)C(C)(C)C3=C(O)C(=O)[C@@]2(C)[C@@H]2C(=O)O[C@@](C)(C(=O)OC)C(=O)[C@@]12C [Terretonin (3), terretonin] | > 100 | > 100 | > 10 | – | – | > 90 | – | –
